Values joined by “and” are separate entries in the source; they are usually repeats but may differ in a detail not shown here. Equal values may be shown once.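 Dose response: 5 concentrations. Exposure: 48 h. Format: 96-well plates. Endpoint: linear interpolation; highest concentration if not reached. At the GI50, growth is halved. TGI marks complete inhibition of growth.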
Legend:
Experiment in all cases: DTP human tumour cell line panel, 48 h
A498 renal = tested on: A498 renal
CAKI-1 renal = tested on: CAKI-1 renal
MALME-3M melanoma = tested on: MALME-3M melanoma
PC-3 prostate = tested on: PC-3 prostate
SF-268 CNS = tested on: SF-268 CNS
SN12C renal = tested on: SN12C renal
SR leukemia = tested on: SR leukemia
TK-10 renal = tested on: TK-10 renal

Row | Structure (SMILES) | GI50 (A498 renal) | TGI (A498 renal) | GI50 (CAKI-1 renal) | TGI (CAKI-1 renal) | GI50 (MALME-3M melanoma) | TGI (MALME-3M melanoma) | GI50 (PC-3 prostate) | TGI (PC-3 prostate) | GI50 (SF-268 CNS) | TGI (SF-268 CNS) | GI50 (SN12C renal) | TGI (SN12C renal) | GI50 (SR leukemia) | TGI (SR leukemia) | GI50 (TK-10 renal) | TGI (TK-10 renal)
1 | O=C1OC(=O)C(c2c[nH]c3ccccc23)=C1c1c[nH]c2ccccc12 | > 25 µM | > 25 µM | > 25 µM | > 25 µM | > 25 µM | > 25 µM | > 18 µM | > 25 µM | > 25 µM | > 25 µM | > 25 µM | > 25 µM | > 25 µM | > 25 µM | > 25 µM | > 25 µM
2 | COC(=O)/C=C/C=C(c1ccccc1)c1ccccc1 | 10.6 µM | 39.6 µM | 3.05 µM | 10.4 µM | 4.23 µM | 30.4 µM | 4.67 µM | > 100 µM | 4.63 µM | > 100 µM | 7.83 µM | > 100 µM | 4.51 µM | > 100 µM | 20.3 µM | > 100 µM
3 | O=C(c1ccccc1)C1N=NCC1c1ccc([N+](=O)[O-])cc1 (stereo not drawn) |  | > 100 µM |  | 44.5 µM |  | > 100 µM |  | > 100 µM |  | > 100 µM |  | > 100 µM |  | 84.7 µM |  | > 100 µM
4 | CCCN=Cc1cc(Cc2ccc(O)c(C=NCCC)c2)ccc1O |  | 8.97 µM |  | 73.8 µM |  | 50.5 µM |  | 5.89 µM |  | 46.4 µM |  | 15.3 µM |  |  |  | 57.4 µM
5 | Nc1cc2cccc[n+]2c2cc(Cl)ccc12 |  |  |  |  | 2.38 µM | 11.7 µM |  |  | 4.03 µM | 21.7 µM | 5.56 µM | 35.4 µM | 2.33 µM | 16.2 µM | 59.7 µM | 
6 | CNC(=O)n1ccc2cc(Oc3ccnc(NC(=O)c4ccc(C5CCN(CCO)CC5)cc4)c3)c(OCCOC)cc21 |  |  | 3.08 µM | 11.3 µM | 1.62 µM | 3.15 µM | 6.1 µM | 26.2 µM | 10.2 µM | 23 µM | 13.5 µM | 27.9 µM | 2.27 µM | 25 µM | 15.3 µM | 29.6 µM
7 | Cc1[c-]onc1C.Cc1[c-]onc1C.[Ag].[Ag].[NH-]S(=O)(=O)c1ccc(N=Nc2cc(N=Nc3ccc(S([NH-])(=O)=O)cc3)c3c(NC(=O)C(Cl)Cl)cccc3c2OC(=O)C(Cl)Cl)cc1 | 13 µM | 44.6 µM | 7.12 µM | 14.2 µM | 9.07 µM | 21.2 µM | 6.82 µM | > 50 µM | 8.78 µM | 28.1 µM | 14.9 µM | > 50 µM | 9.59 µM | 42.5 µM | 10 µM | 18.2 µM
8 | CCN(CC)c1ccc(C(=C2C=CC(=[N+](CC)Cc3cccc(S(=O)(=O)O)c3)C=C2)c2ccc(N(CC)Cc3cccc(S(=O)(=O)O)c3)cc2)cc1 | 5.35 µM | 32.4 µM | 24 µM | > 100 µM | 5.52 µM | 53.1 µM | 6.87 µM | > 66.3 µM | 4.12 µM | > 79.4 µM | 3.24 µM | > 100 µM |  | 0.643 µM | 18.8 µM | > 100 µM
9 | CC/C=C\C=C/C(=O)N/C=C/CC1Cc2cccc(O)c2C(=O)O1 (stereo not drawn) | 20.6 µM | 59.9 µM | 17.3 µM | 36.3 µM | 41.5 µM | > 100 µM | 25.3 µM | > 100 µM | 15.1 µM | 53.3 µM | 17.8 µM | 38.1 µM | 2.22 µM | 6.2 µM | 62 µM | > 100 µM
10 | CCCC[C@H](NC(=O)[C@H]1CCCN1C)C(=O)N(C)[C@H](C[C@@H](OC(C)=O)c1nc(C(=O)N[C@@H](Cc2ccccc2)C[C@H](C)C(=O)OCC)cs1)C(C)C | 0.00714 µM | 0.0841 µM |  |  |  |  | 0.00957 µM | > 33.3 µM | 0.0217 µM | 25.2 µM | 0.0316 µM | 8.41 µM | < 0.00333 µM | 5.24 µM | 6.88 µM | > 33.3 µM
11 | CN(C)S(=O)(=O)c1ccc(NC(=O)COC(=O)c2ccc(S(=O)(=O)N3CCCCC3)cc2)cc1 | > 100 µM | > 100 µM | > 100 µM | > 100 µM | > 100 µM | > 100 µM | > 100 µM | > 100 µM | > 100 µM | > 100 µM | > 100 µM | > 100 µM | > 100 µM | > 100 µM | > 100 µM | > 100 µM
12 | C[C@H](Nc1ncnc2nc[nH]c12)c1cc2cccc(Cl)c2c(=O)n1-c1ccccc1 | 0.0491 µM | 0.446 µM | 13.5 µM | > 100 µM | 3.51 µM | > 79.5 µM | 2.39 µM | > 100 µM | 22.6 µM | > 100 µM | 3.11 µM | > 100 µM | 24.3 µM | > 100 µM | 2.8 µM | 45.5 µM
13 | COc1cc(C2c3cc4c(cc3OC(N3CCCC3)C2C)OCO4)cc(OC)c1OC (stereo not drawn) |  | 7.73 µM |  | 12 µM |  | 34.7 µM |  | > 62.5 µM |  | > 59.3 µM |  | 28 µM |  | > 17.1 µM |  | 30.2 µM
14 | COC(=O)[C@@H](C)C[C@H](Cc1ccccc1)NC(=O)c1nc([C@@H](C[C@H](C(C)C)N(C)C(=O)[C@@H](NC(=O)[C@H]2CCCCN2C)C(C)C)OC(C)=O)sc1C | < 0.00167 µM | > 3.99 µM |  |  |  |  | < 0.00167 µM | > 16.7 µM | 0.00472 µM | > 16.7 µM | < 0.00167 µM | > 16.7 µM | < 0.00167 µM | > 16.7 µM | > 10.4 µM | > 16.7 µM
15 | CC(C)NC[C@@H](C(=O)N1CCN(c2ncnc3c2[C@H](C)C[C@H]3O)CC1)c1ccc(Cl)cc1 | 0.396 µM and 0.24 µM | 5.88 µM and 4.3 µM | > 10 µM and 36.1 µM | > 100 µM | > 10 µM and 4.54 µM | > 76.7 µM | 0.566 µM and 0.887 µM | > 100 µM | > 10 µM and 28.7 µM | > 100 µM | > 10 µM and 44.7 µM | > 100 µM | > 10 µM and 13 µM | > 71.5 µM | 1.29 µM and 3.32 µM | > 66.4 µM
16 | CC(C)(C)C#CC1=C(Br)C(=O)OC1 | 4.04 µM | 15.1 µM | 2.38 µM | 6.95 µM | 2.08 µM | 4.91 µM | 2.39 µM | 11.2 µM | 12.7 µM | 33.3 µM | 6.26 µM | 17.7 µM | > 100 µM | > 100 µM | 0.36 µM | 2.26 µM

From PubChem BioAssay (NCI)
